#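 Each compound was tested at five concentrations against cells in 96-well plates for 48 hours. Abbreviation: GI50, concentration required for 50% inhibition of growth.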 Active and inactive are the calls of the source. Rule as the data show it: active = GI50 up to about 1.1 µM and inactive = higher.
# Columns and labels:
# Test in all cases: NCI tumour cell line growth inhibition, 48 h
# HOP-92 = system: HOP-92
# SK-MEL-2 = system: SK-MEL-2
# M14 = system: M14
# OVCAR-3 = system: OVCAR-3
# SNB-75 = system: SNB-75
# SF-268 = system: SF-268
# Hs-578T = system: Hs-578T
# BT-549 = system: BT-549
# HCT-116 = system: HCT-116
# LOX IMVI = system: LOX IMVI
# RPMI-8226 = system: RPMI-8226
# NCI/ADR-RES = system: NCI/ADR-RES
# MDA-MB-435 = system: MDA-MB-435
# COLO 205 = system: COLO 205
# CAKI-1 = system: CAKI-1
# TK-10 = system: TK-10
# T47D = system: T47D
# KM12 = system: KM12
# NCI-H460 = system: NCI-H460
# K562 = system: K562
# SK-MEL-5 = system: SK-MEL-5
# OVCAR-5 = system: OVCAR-5
# SK-MEL-28 = system: SK-MEL-28
# HL-60 = system: HL-60
# SNB-19 = system: SNB-19
# UACC-62 = system: UACC-62
# OVCAR-8 = system: OVCAR-8
# HCT-15 = system: HCT-15
# MDA-MB-231 = system: MDA-MB-231
# IGROV-1 = system: IGROV-1
# DU-145 = system: DU-145
# OVCAR-4 = system: OVCAR-4
# PC-3 = system: PC-3
# NCI-H522 = system: NCI-H522
# ACHN = system: ACHN
# HOP-62 = system: HOP-62
# SN12C = system: SN12C
# SK-OV-3 = system: SK-OV-3
# CCRF-CEM = system: CCRF-CEM
# Malme-3M = system: Malme-3M
# RXF 393 = system: RXF 393
# U-251 = system: U-251
# MOLT-4 = system: MOLT-4
# HT-29 = system: HT-29
# SF-295 = system: SF-295
# SR = system: SR
# HCC 2998 = system: HCC 2998
# A549 = system: A549
# A498 = system: A498
# MDA-N = system: MDA-N
# SF-539 = system: SF-539
# UACC-257 = system: UACC-257
# 786-0 = system: 786-0
# MCF7 = system: MCF7
# NCI-H23 = system: NCI-H23
# UO-31 = system: UO-31
# EKVX = system: EKVX
# SW-620 = system: SW-620
# NCI-H226 = system: NCI-H226
structure (smiles),measurement,setting,value
CCCCCCCCCCCCCCCCCCNc1ccn(C2OC(COP(=O)(O)OCC3OC(n4cc(F)c(=O)[nH]c4=O)CC3O)C(O)C2O)c(=O)n1 (stereo not drawn),GI50,HOP-92,> 100 µM (inactive)
same,GI50,SK-MEL-2,51.9 µM (inactive)
same,GI50,M14,3.31 µM (inactive)
same,GI50,OVCAR-3,7.67 µM (inactive)
same,GI50,SNB-75,1.18 µM (inactive)
same,GI50,SF-268,0.0914 µM (active)
same,GI50,Hs-578T,17.8 µM (inactive)
same,GI50,BT-549,11.7 µM (inactive)
same,GI50,HCT-116,2.98 µM (inactive)
same,GI50,LOX IMVI,1.36 µM (inactive)
same,GI50,RPMI-8226,1.44 µM (inactive)
same,GI50,NCI/ADR-RES,1.33 µM (inactive)
same,GI50,MDA-MB-435,37.9 µM (inactive)
same,GI50,COLO 205,16.1 µM (inactive)
same,GI50,CAKI-1,1.16 µM (inactive)
same,GI50,TK-10,14.7 µM (inactive)
same,GI50,T47D,27.9 µM (inactive)
same,GI50,KM12,15.5 µM (inactive)
same,GI50,NCI-H460,3.53 µM (inactive)
same,GI50,K562,12.1 µM (inactive)
same,GI50,SK-MEL-5,23.1 µM (inactive)
same,GI50,OVCAR-5,15 µM (inactive)
same,GI50,SK-MEL-28,> 100 µM (inactive)
same,GI50,HL-60,0.678 µM (active)
same,GI50,SNB-19,20.2 µM (inactive)
same,GI50,UACC-62,1.19 µM (inactive)
same,GI50,OVCAR-8,1.36 µM (inactive)
same,GI50,HCT-15,16.3 µM
same,GI50,MDA-MB-231,> 100 µM (inactive)
same,GI50,IGROV-1,10.1 µM (inactive)
same,GI50,DU-145,2.43 µM (inactive)
same,GI50,OVCAR-4,60 µM (inactive)
same,GI50,PC-3,1.53 µM (inactive)
same,GI50,NCI-H522,4.83 µM (inactive)
same,GI50,ACHN,0.778 µM (active)
same,GI50,HOP-62,0.356 µM (active)
same,GI50,SN12C,3.29 µM (inactive)
same,GI50,SK-OV-3,27.5 µM (inactive)
same,GI50,CCRF-CEM,1.24 µM (inactive)
same,GI50,Malme-3M,0.634 µM (active)
same,GI50,RXF 393,12.6 µM (inactive)
same,GI50,U-251,6.28 µM (inactive)
same,GI50,MOLT-4,1.63 µM (inactive)
same,GI50,HT-29,5.38 µM (inactive)
same,GI50,SF-295,0.47 µM (active)
same,GI50,SR,0.337 µM (active)
same,GI50,HCC 2998,< 0.01 µM (active)
same,GI50,A549,0.251 µM (active)
same,GI50,A498,33.3 µM (inactive)
same,GI50,MDA-N,46.6 µM (inactive)
same,GI50,SF-539,0.207 µM (active)
same,GI50,UACC-257,> 89.7 µM (inactive)
same,GI50,786-0,2.19 µM (inactive)
same,GI50,MCF7,0.274 µM (active)
same,GI50,NCI-H23,1.48 µM (inactive)
same,GI50,UO-31,0.498 µM (active)
same,GI50,EKVX,14.5 µM (inactive)
same,GI50,SW-620,42.8 µM (inactive)
CCOC1CC(=O)c2c(Br)sc(Br)c21 (stereo not drawn),GI50,HOP-92,17.5 µM (inactive)
same,GI50,SK-MEL-2,17.5 µM (inactive)
same,GI50,M14,17.1 µM (inactive)
same,GI50,OVCAR-3,14.6 µM (inactive)
same,GI50,SNB-75,19.1 µM (inactive)
same,GI50,SF-268,28.6 µM (inactive)
same,GI50,Hs-578T,37.8 µM (inactive)
same,GI50,BT-549,24.4 µM (inactive)
same,GI50,HCT-116,21.2 µM (inactive)
same,GI50,LOX IMVI,19.5 µM (inactive)
same,GI50,RPMI-8226,17.9 µM (inactive)
same,GI50,NCI/ADR-RES,37.6 µM (inactive)
same,GI50,MDA-MB-435,17.5 µM (inactive)
same,GI50,COLO 205,19.7 µM (inactive)
same,GI50,CAKI-1,17.3 µM (inactive)
same,GI50,TK-10,20.7 µM (inactive)
same,GI50,T47D,19.9 µM (inactive)
same,GI50,KM12,19.3 µM (inactive)
same,GI50,NCI-H460,20.7 µM (inactive)
same,GI50,K562,17.3 µM (inactive)
same,GI50,SK-MEL-5,30.8 µM (inactive)
same,GI50,OVCAR-5,23.7 µM (inactive)
same,GI50,SK-MEL-28,19.6 µM (inactive)
same,GI50,HL-60,20.4 µM (inactive)
same,GI50,SNB-19,23.8 µM (inactive)
same,GI50,UACC-62,18.7 µM (inactive)
same,GI50,OVCAR-8,17.5 µM (inactive)
same,GI50,HCT-15,18 µM
same,GI50,MDA-MB-231,19.5 µM (inactive)
same,GI50,IGROV-1,15.5 µM (inactive)
same,GI50,DU-145,18 µM (inactive)
same,GI50,PC-3,20.8 µM (inactive)
same,GI50,NCI-H522,28.5 µM (inactive)
same,GI50,ACHN,19.7 µM (inactive)
same,GI50,HOP-62,18.5 µM (inactive)
same,GI50,SN12C,24.9 µM (inactive)
same,GI50,SK-OV-3,16.5 µM (inactive)
same,GI50,CCRF-CEM,7.31 µM (inactive)
same,GI50,Malme-3M,23.1 µM (inactive)
same,GI50,RXF 393,18.5 µM (inactive)
same,GI50,U-251,16.9 µM (inactive)
same,GI50,MOLT-4,14.3 µM (inactive)
same,GI50,HT-29,21.3 µM (inactive)
same,GI50,SF-295,27.9 µM (inactive)
same,GI50,SR,21.7 µM (inactive)
same,GI50,HCC 2998,21.9 µM (inactive)
same,GI50,A549,29.2 µM (inactive)
same,GI50,A498,32.4 µM (inactive)
same,GI50,MDA-N,22.3 µM (inactive)
same,GI50,SF-539,26.4 µM (inactive)
same,GI50,UACC-257,16.9 µM (inactive)
same,GI50,786-0,30.7 µM (inactive)
same,GI50,MCF7,21.2 µM (inactive)
same,GI50,NCI-H23,17.9 µM (inactive)
same,GI50,UO-31,18.2 µM (inactive)
same,GI50,EKVX,21.7 µM (inactive)
same,GI50,SW-620,20 µM (inactive)
NCCOc1ccccn1,GI50,HOP-92,> 100 µM (inactive)
same,GI50,SK-MEL-2,> 100 µM (inactive)
same,GI50,M14,> 100 µM (inactive)
same,GI50,OVCAR-3,> 100 µM (inactive)
same,GI50,SNB-75,> 100 µM (inactive)
same,GI50,SF-268,> 100 µM (inactive)
same,GI50,Hs-578T,> 100 µM (inactive)
same,GI50,BT-549,> 100 µM (inactive)
same,GI50,HCT-116,> 100 µM (inactive)
same,GI50,NCI-H226,> 100 µM (inactive)
same,GI50,LOX IMVI,> 100 µM (inactive)
same,GI50,RPMI-8226,> 100 µM (inactive)
same,GI50,NCI/ADR-RES,> 100 µM (inactive)
same,GI50,MDA-MB-435,> 100 µM (inactive)
same,GI50,COLO 205,> 100 µM (inactive)
same,GI50,CAKI-1,> 100 µM (inactive)
same,GI50,TK-10,> 100 µM (inactive)
same,GI50,T47D,> 100 µM (inactive)
same,GI50,KM12,> 100 µM (inactive)
same,GI50,NCI-H460,> 100 µM (inactive)
same,GI50,K562,> 100 µM (inactive)
same,GI50,SK-MEL-5,> 100 µM (inactive)
same,GI50,OVCAR-5,> 100 µM (inactive)
same,GI50,SK-MEL-28,> 100 µM (inactive)
same,GI50,HL-60,> 100 µM (inactive)
same,GI50,SNB-19,> 100 µM (inactive)
same,GI50,UACC-62,> 100 µM (inactive)
same,GI50,OVCAR-8,> 100 µM (inactive)
same,GI50,HCT-15,> 100 µM
same,GI50,MDA-MB-231,> 100 µM (inactive)
same,GI50,IGROV-1,> 100 µM (inactive)
same,GI50,DU-145,> 100 µM (inactive)
same,GI50,OVCAR-4,> 100 µM (inactive)
same,GI50,PC-3,> 100 µM (inactive)
same,GI50,NCI-H522,> 100 µM (inactive)
same,GI50,ACHN,> 100 µM (inactive)
same,GI50,HOP-62,> 100 µM (inactive)
same,GI50,SN12C,> 100 µM (inactive)
same,GI50,SK-OV-3,> 100 µM (inactive)
same,GI50,CCRF-CEM,> 100 µM (inactive)
same,GI50,Malme-3M,> 100 µM (inactive)
same,GI50,RXF 393,> 100 µM (inactive)
same,GI50,U-251,> 100 µM (inactive)
same,GI50,MOLT-4,> 100 µM (inactive)
same,GI50,HT-29,> 100 µM (inactive)
same,GI50,SF-295,> 100 µM (inactive)
same,GI50,SR,> 100 µM (inactive)
same,GI50,A549,> 100 µM (inactive)
same,GI50,A498,> 100 µM (inactive)
same,GI50,MDA-N,> 100 µM (inactive)
same,GI50,SF-539,> 100 µM (inactive)
same,GI50,UACC-257,> 100 µM (inactive)
same,GI50,786-0,> 100 µM (inactive)
same,GI50,MCF7,> 100 µM (inactive)
same,GI50,NCI-H23,> 100 µM (inactive)
same,GI50,UO-31,> 100 µM (inactive)
same,GI50,EKVX,> 100 µM (inactive)
same,GI50,SW-620,> 100 µM (inactive)
